Drawing on PubChem BioAssay AID1259407 (Chemical Carcinogenesis Research Information System (CCRIS), 2018), this text covers mutagenic call for five compounds.

Each structure is given as a SMILES string. Active and inactive are the calls of the source. How the calls were made is not given here.

The test system of this series is CCRIS mutagenicity, Ames/micronucleus/aberration tests. In words: CCRIS mutagenicity studies.
Setting [1] is: Test System: AMES SALMONELLA TYPHIMURIUM, Strain/Indicator: TA98, Metabolic Activation: NONE, Method: STANDARD PLATE.
Where [2] appears, read: Test System: AMES SALMONELLA TYPHIMURIUM, Strain/Indicator: TA98, Metabolic Activation: RAT, LIVER, S-9, AROCLOR 1254, Method: STANDARD PLATE.
The mark [3] stands for this setting: Test System: AMES SALMONELLA TYPHIMURIUM, Strain/Indicator: TA100, Metabolic Activation: NONE, Method: STANDARD PLATE.
The mark [4] stands for this setting: Test System: AMES SALMONELLA TYPHIMURIUM, Strain/Indicator: TA100, Metabolic Activation: RAT, LIVER, S-9, AROCLOR 1254, Method: STANDARD PLATE.
Setting [5] is: Test System: AMES SALMONELLA TYPHIMURIUM, Strain/Indicator: TA1535, Metabolic Activation: NONE, Method: STANDARD PLATE.
[6] abbreviates: Test System: AMES SALMONELLA TYPHIMURIUM, Strain/Indicator: TA1535, Metabolic Activation: RAT, LIVER, S-9, AROCLOR 1254, Method: STANDARD PLATE.
[7] abbreviates: Test System: AMES SALMONELLA TYPHIMURIUM, Strain/Indicator: TA1537, Metabolic Activation: NONE, Method: STANDARD PLATE.
[8] abbreviates: Test System: AMES SALMONELLA TYPHIMURIUM, Strain/Indicator: TA1537, Metabolic Activation: RAT, LIVER, S-9, AROCLOR 1254, Method: STANDARD PLATE.
Where [9] appears, read: Test System: AMES SALMONELLA TYPHIMURIUM, Strain/Indicator: TA97, Metabolic Activation: NONE, Method: PREINCUBATION
The mark [10] stands for this setting: Test System: AMES SALMONELLA TYPHIMURIUM, Strain/Indicator: TA98, Metabolic Activation: NONE, Method: PREINCUBATION
The mark [11] stands for this setting: Test System: AMES SALMONELLA TYPHIMURIUM, Strain/Indicator: TA100, Metabolic Activation: NONE, Method: PREINCUBATION
Where [12] appears, read: Test System: AMES SALMONELLA TYPHIMURIUM, Strain/Indicator: TA1535, Metabolic Activation: NONE, Method: PREINCUBATION

As to `O=C1NC(=S)NC(=O)C1C(=O)Nc1ccccc1`, the mutagenic call is “inactive; negative” (Test System: AMES SALMONELLA TYPHIMURIUM, Strain/Indicator: TA102, Metabolic Activation: NONE, Method: STANDARD PLATE); “inactive; negative” (Test System: CHINESE HAMSTER V-79, Strain/Indicator: V-79 (HPRT)/6-THIOGUANINE, Metabolic Activation: NONE); “active; positive” (Test System: MOUSE LYMPHOMA, Strain/Indicator: L5178Y (HPRT)/6-THIOGUANINE, Metabolic Activation: NONE, Method: FLUCTUATION TEST); “active; positive” (Test System: MOUSE LYMPHOMA, Strain/Indicator: L5178Y (TK+/TK-), Metabolic Activation: NONE, Method: FLUCTUATION TEST).
Regarding `O=S(=O)(Oc1ccc(Cl)cc1Cl)c1cccc2cccnc12`, the mutagenic call under setting [1] is “inactive; negative”; the mutagenic call under setting [2] was “active; positive”; the mutagenic call under setting [3] was “inactive; negative”; the mutagenic call under setting [4] was “active; positive”; the mutagenic call under setting [5] is “inactive; negative”; the mutagenic call under setting [6] was “inactive; negative”. Further, the mutagenic call was “inactive; negative” under setting [7] and “inactive; negative” under setting [8].
For `CC(C(=O)O)c1ccc(Oc2nccs2)cc1` (stereo not drawn), the mutagenic call by setting is: under setting [1], “inactive; negative”; under setting [2], “inactive; negative”; under setting [3], “inactive; negative”; under setting [4], “inactive; negative”; under setting [5], “inactive; negative”; under setting [6], “inactive; negative”. In addition, the mutagenic call is “inactive; negative” under setting [7]; “inactive; negative” under setting [8]; “inactive; negative” (Test System: E. COLI, Strain/Indicator: WP2, Metabolic Activation: NONE, Method: STANDARD PLATE); “inactive; negative” (Test System: E. COLI, Strain/Indicator: WP2, Metabolic Activation: RAT, LIVER, S-9, AROCLOR 1254, Method: STANDARD PLATE); “inactive; negative” (Test System: E. COLI, Strain/Indicator: WP2 UVRA, Metabolic Activation: NONE, Method: STANDARD PLATE); “inactive; negative” (Test System: E. COLI, Strain/Indicator: WP2 UVRA, Metabolic Activation: RAT, LIVER, S-9, AROCLOR 1254, Method: STANDARD PLATE).
For `COc1ccc(C=O)cc1`, the mutagenic call is, setting by setting: under setting [9], “inactive; negative”; (Test System: AMES SALMONELLA TYPHIMURIUM, Strain/Indicator: TA97, Metabolic Activation: RAT, LIVER, S-9, AROCLOR 1254, Method: PREINCUBATION) “inactive; negative”; under setting [10], “inactive; negative”; (Test System: AMES SALMONELLA TYPHIMURIUM, Strain/Indicator: TA98, Metabolic Activation: RAT LIVER S-9, PHENOBARBITAL AND BETA-NAPHTHOFLAVONE, Method: PREINCUBATION) “inactive; negative”; under setting [11], “inactive; negative”; (Test System: AMES SALMONELLA TYPHIMURIUM, Strain/Indicator: TA100, Metabolic Activation: RAT LIVER S-9, PHENOBARBITAL AND BETA-NAPHTHOFLAVONE, Method: PREINCUBATION) “inactive; negative”. Further, the mutagenic call reads like this: (Test System: AMES SALMONELLA TYPHIMURIUM, Strain/Indicator: TA102, Metabolic Activation: NONE, Method: PREINCUBATION) “inactive; negative”; (Test System: AMES SALMONELLA TYPHIMURIUM, Strain/Indicator: TA102, Metabolic Activation: RAT, LIVER, S-9, AROCLOR 1254, Method: PREINCUBATION) “inactive; negative”; under setting [12], “inactive; negative”; (Test System: AMES SALMONELLA TYPHIMURIUM, Strain/Indicator: TA1535, Metabolic Activation: RAT LIVER S-9, PHENOBARBITAL AND BETA-NAPHTHOFLAVONE, Method: PREINCUBATION) “inactive; negative”; (Test System: AMES SALMONELLA TYPHIMURIUM, Strain/Indicator: TA1537, Metabolic Activation: NONE, Method: PREINCUBATION) “inactive; negative”; (Test System: AMES SALMONELLA TYPHIMURIUM, Strain/Indicator: TA1537, Metabolic Activation: RAT LIVER S-9, PHENOBARBITAL AND BETA-NAPHTHOFLAVONE, Method: PREINCUBATION) “inactive; negative”. In addition, the mutagenic call runs as follows: (Test System: AMES SALMONELLA TYPHIMURIUM, Strain/Indicator: TA1538, Metabolic Activation: NONE, Method: PREINCUBATION) “inactive; negative”; (Test System: AMES SALMONELLA TYPHIMURIUM, Strain/Indicator: TA1538, Metabolic Activation: RAT LIVER S-9, PHENOBARBITAL AND BETA-NAPHTHOFLAVONE, Method: PREINCUBATION) “inactive; negative”; (Test System: E. COLI, Strain/Indicator: WP2UVRA, Metabolic Activation: NONE, Method: PREINCUBATION) “inactive; negative”; (Test System: E. COLI, Strain/Indicator: WP2UVRA, Metabolic Activation: RAT LIVER S-9, PHENOBARBITAL AND BETA-NAPHTHOFLAVONE, Method: PREINCUBATION) “inactive; negative”; (Test System: MOUSE LYMPHOMA, Strain/Indicator: L5178Y (TK+/TK-), Metabolic Activation: NONE, Method: SUSPENSION/PLATE) “active; positive”; (Test System: MOUSE LYMPHOMA, Strain/Indicator: L5178Y (TK+/TK-), Metabolic Activation: RAT, LIVER, S-9, AROCLOR 1254, Method: SUSPENSION/PLATE) “active; positive. reevaluation of results: positive”. The mutagenic call (Test System: Mouse lymphoma, Strain/Indicator: L5178Y (tk+/tk-), Metabolic Activation: None, Method: Suspension/plate) was “inactive; negative”.
As for `Nc1cccc(S(=O)(=O)O)c1`, the mutagenic call reads like this: (Test System: AMES SALMONELLA TYPHIMURIUM, Strain/Indicator: TA97, Metabolic Activation: HAMSTER, LIVER, S-9, AROCLOR 1254 (10 OR 30%), Method: PREINCUBATION) “inactive; negative”; under setting [9], “inactive; negative”; (Test System: AMES SALMONELLA TYPHIMURIUM, Strain/Indicator: TA97, Metabolic Activation: RAT, LIVER, S-9, AROCLOR 1254 (10 OR 30%), Method: PREINCUBATION) “inactive; negative”; (Test System: AMES SALMONELLA TYPHIMURIUM, Strain/Indicator: TA98, Metabolic Activation: HAMSTER, LIVER, S-9, AROCLOR 1254 (10 OR 30%), Method: PREINCUBATION) “inactive; negative”; under setting [10], “inactive; negative”; (Test System: AMES SALMONELLA TYPHIMURIUM, Strain/Indicator: TA98, Metabolic Activation: RAT, LIVER, S-9, AROCLOR 1254 (10 OR 30%), Method: PREINCUBATION) “inactive; negative”. Moreover, the mutagenic call is “inactive; negative” (Test System: AMES SALMONELLA TYPHIMURIUM, Strain/Indicator: TA98, Metabolic Activation: S-9, Method: PREINCUBATION); “inactive; negative” (Test System: AMES SALMONELLA TYPHIMURIUM, Strain/Indicator: TA100, Metabolic Activation: HAMSTER, LIVER, S-9, AROCLOR 1254 (10 OR 30%), Method: PREINCUBATION); “inactive; negative” under setting [11]; “inactive; negative” (Test System: AMES SALMONELLA TYPHIMURIUM, Strain/Indicator: TA100, Metabolic Activation: RAT, LIVER, S-9, AROCLOR 1254 (10 OR 30%), Method: PREINCUBATION); “inactive; negative” (Test System: AMES SALMONELLA TYPHIMURIUM, Strain/Indicator: TA100, Metabolic Activation: S-9, Method: PREINCUBATION); “inactive; negative” (Test System: AMES SALMONELLA TYPHIMURIUM, Strain/Indicator: TA1535, Metabolic Activation: HAMSTER, LIVER, S-9, AROCLOR 1254 (10 OR 30%), Method: PREINCUBATION). Also, the mutagenic call is, setting by setting: under setting [12], “inactive; negative”; (Test System: AMES SALMONELLA TYPHIMURIUM, Strain/Indicator: TA1535, Metabolic Activation: RAT, LIVER, S-9, AROCLOR 1254 (10 OR 30%), Method: PREINCUBATION) “inactive; negative”; (Test System: UDS RODENT HEPATOCYTES, Strain/Indicator: THY INCORP (NON-S-PHASE), Metabolic Activation: NONE, Method: AUTORADIOGRAPHY) “inactive; negative”.
